How the values were obtained:
[1] = solid residues analysis after shake-flask (DSC, FTIR-ATR); format: physicochemical; conditions: sediments after shake-flask in water and organic solvents, FTIR-ATR and literature
From the text: The equilibrium in the solid-liquid saturated systems is governed not only by the properties of solvents but also by the solid state including polymorphic or pseudopolymorphic transformations as well as solvates formation. […] For this reason, the sediments collected after the shake-flask experiments for water and studied organic solvents were examined using differential scanning calorimetry (DSC) and Fourier transform infrared spectroscopy–attenuated total reflectance (FTIR-ATR) techniques. The detailed characteristics of solid residues were provided in supplementary materials (see Figures S5–S10). In the case of solvate formation or polymorphic transformation, the absorption band shifts on the IR spectra are often related to new hydrogen bonding patterns. In the case of DSC thermograms, new phases can be detected by observing additional signals due to the heat transfer associated with polymorphic transition or pseudo-polymorph transformations. […] This conclusion is in good accord with already reported observation. According to Ouyang et al. (2019) benzamide solid form is not altered in contact with such solvents as water, methanol, ethanol, 1-propanol, isopropanol, 1-butanol, isobutanol, methyl acetate, ethyl acetate, butyl acetate, acetonitrile and acetone. In the case of salicylamide, the only polymorphic transformation observed so far was with the use of high pressure. […]
The solid residues obtained after “shake-flask” procedure were dried on air and used for IR spectrophotometric and DSC measurements. Infrared spectra were recorded using PerkinElmer (Waltham, MA, USA) spectrophotometer equipped with a diamond attenuated total reflection (ATR) device. DSC thermograms were recorded using DSC 6000 Perkin Elmer (Waltham, MA, USA) calorimeter (heating rate: 5 K/min, nitrogen flow: 20 mL/min) calibrated using indium and zinc reference standards provided by the manufacturer.

[2] = shake-flask solubility in aqueous binary mixtures of DMSO, DMF and 4FM; format: physicochemical; conditions: aqueous 4FM mixture, 4FM mole fraction 0.6; room temperature (Figure 4)
Experimental: In this study, the “shake-flask” procedure used in the previous studies was applied and it consists of the following steps. First, the mixtures (suspensions) containing saturated solution and undissolved solids were prepared in glass screw test tubes. Then the mixtures were incubated and agitated for 24 h at controlled temperature (298.15, 303.15, 308.15, or 313.15 K) and 60 rpm using Orbital Shaker ES-20/60 (Biosan, Riga, Latvia). At the next step, the temperature was still controlled, however, the agitation was turned off and suspensions were let to settle down for an hour. Then, the supernatant was filtrated using 0.22 μm PTFE syringe membrane filter. Nextly, 0.1 mL of the filtrate was diluted with 2 mL of methanol. The samples prepared in this way were protected against crystallization, as the concentration was low. 0.5 mL of the filtrate was used for density measurements. All equipment including automatic pipette tips, membrane filters, and syringes were preheated at the measurement temperature in order to avoid the solute precipitation. All “shake-flask” experiments were carried out in triplicate. The concentration in the samples was determined spectrophotometrically using the calibration curve method. […] All UV spectra were recorded using an A360 UV-VIS spectrophotometer (AOE Instruments, Shanghai, China).

[3] = COSMO-RS solubility computation; conditions: acetic acid

| molar fraction solubility (xS) [2] | mole fraction error of COSMO-RS computed solubility versus experiment [3] | Structure (SMILES) | phase change of the solid in saturated solutions (polymorph / solvate) [1] |
| --- | --- | --- | --- |
| – | – | NC(=O)c1ccccc1 [benzamide] | do not show a tendency to undergo phase changes |
| – | – | CCOc1ccccc1C(N)=O [ethenzamide] | do not show a tendency to undergo phase changes |
| 0.379 molar fraction | −60% | NC(=O)c1ccccc1O [salicylamide] | do not show a tendency to undergo phase changes |

From article PMC9144492, “New Screening Protocol for Effective Green Solvents Selection of Benzamide, Salicylamide and Ethenzamide” (Molecules, 2022)
